Assays:
[1] = tested on: Wistar rats; experiment: Lipid utilization by indirect calorimetry; type: in vivo, rat
Excerpt: b) Indirect calorimetry. Substrate utilization can be measured indirectly from respiratory gas exchanges. The method is based on the measurement of oxygen (O2) consumption and carbon-dioxide (CO2) release, both originating from the oxidation of the energetic substrates that progressively release the chemical energy stored in the carbon-hydrogen bonds of carbohydrates, lipids (and proteins). The amounts of carbohydrate and lipid being oxidized in the body at any given time can be calculated from the volumes of 02 consumption and CO2 exhalation by laboratory animals (and humans) in metabolic chambers. For a review of the methodology and the theoretical basis of indirect calorimetry, see Ferrannini, Metabolism, 37, 287-301, 1988.
An established, commercially available metabolic chamber apparatus (Oxymax, columbus Instruments, Ohio) was used to determine the gas exchange of vehicle-treated and compound (Ia)-treated Wistar rats in order to make precise and noninvasive measurements of the changes in the nature of the energetic substrate being oxidized by Wistar rats. Table 5 summarizes the data of the calculated lipid utilization determined for animals treated with two doses of compound (Ia), 10 and 30 mg/kg, administered subcutaneously 30 min. before starting the gas exchange measurements.

[2] = tested on: Wistar rats; experiment: In vivo oxidation of [U-14C]palmitate (exhaled 14CO2); design: species or system rat; settings: 30 mg/kg s.c.
Procedure: Compound (Ia) was tested in normal Wistar rats by two different methods to assess in vivo a) direct effects on fatty acid oxidation by following the conversion of [^14C]-labeled palmitate to ^14CO2 exhaled by the animals and b) effects on total lipid utilization as determined by indirect calorimetry.
a) In vivo oxidation of [U-^14C]palmitate. Male Wistar rats (240-360 g) were given chow food ad libitum. The day before the experiment each animal was singly caged and food was withdrawn 2.5 hours before the experiment. The animals were given [U-^14C]palmitate (5 μCi) dissolved in 500 μl of olive oil by gavage and compound (Ia) (30 mg/kg) or saline (vehicle) by subcutaneous injection. Immediately after receiving [U-^14C]palmitate and compound (Ia) or vehicle, the animals were kept singly in a metabolic chamber during six hours. The chamber was set up to allow quantive recovery of ^14CO2 exhaled by the animals. The chamber consisted of a desiccator with an elevated platform for the rat, an inlet for air at the bottom wall of the vessel. The flow of the air-exchange was controlled by a flow meter connected to a vacuum pump and set to 50 litres/hour. The temperature inside the chamber was kept at 22° C. Exhaled ^14CO2 from the animals was absorbed by a flask containing 500 ml of Carbosorb E (Canberra Packard).

SMILES: CO[C@H]1CCCC[C@@H](c2ccccc2)OC(=O)[C@@H](C)C2(O)O[C@H]([C@@H](C)[C@H](O)[C@H]2OC)[C@@H](C)/C=C/[C@H]1OC [Cpd (Ia), Soraphen A 1-α]
- % increase over vehicle ([1]; 10 mg/kg s.c., 33.5 min): 12.6%
- Accumulated lipid utilization ([1]; 10 mg/kg s.c., 33.5 min): 0.24 g/kg body weight
- % increase over vehicle ([1]; 10 mg/kg s.c., 67 min): 9.6%
- Accumulated lipid utilization ([1]; 10 mg/kg s.c., 67 min): 0.49 g/kg body weight
- % increase over vehicle ([1]; 10 mg/kg s.c., 100.5 min): 9.8%
- Accumulated lipid utilization ([1]; 10 mg/kg s.c., 100.5 min): 0.76 g/kg body weight
- % increase over vehicle ([1]; 10 mg/kg s.c., 134 min): 9.8%
- Accumulated lipid utilization ([1]; 10 mg/kg s.c., 134 min): 1.03 g/kg body weight
- % increase over vehicle ([1]; 10 mg/kg s.c., 167.5 min): 9.2%
- Accumulated lipid utilization ([1]; 10 mg/kg s.c., 167.5 min): 1.31 g/kg body weight
- % increase over vehicle ([1]; 10 mg/kg s.c., 201 min): 8.4%
- Accumulated lipid utilization ([1]; 10 mg/kg s.c., 201 min): 1.61 g/kg body weight
- % increase over vehicle ([1]; 10 mg/kg s.c., 234.5 min): 7.8%
- Accumulated lipid utilization ([1]; 10 mg/kg s.c., 234.5 min): 1.89 g/kg body weight
- % increase over vehicle ([1]; 10 mg/kg s.c., 268 min): 7.9%
- Accumulated lipid utilization ([1]; 10 mg/kg s.c., 268 min): 2.17 g/kg body weight
- % increase over vehicle ([1]; 10 mg/kg s.c., 301.5 min): 7.7%
- Accumulated lipid utilization ([1]; 10 mg/kg s.c., 301.5 min): 2.44 g/kg body weight
- % increase over vehicle ([1]; 10 mg/kg s.c., 335 min): 7.2%
- Accumulated lipid utilization ([1]; 10 mg/kg s.c., 335 min): 2.73 g/kg body weight
- % increase over vehicle ([1]; 10 mg/kg s.c., 368.5 min): 6.3%
- Accumulated lipid utilization ([1]; 10 mg/kg s.c., 368.5 min): 3.03 g/kg body weight
- % increase over vehicle ([1]; 30 mg/kg s.c., 33.5 min): 28.4%
- Accumulated lipid utilization ([1]; 30 mg/kg s.c., 33.5 min): 0.27 g/kg body weight
- % increase over vehicle ([1]; 30 mg/kg s.c., 67 min): 19.2%
- Accumulated lipid utilization ([1]; 30 mg/kg s.c., 67 min): 0.54 g/kg body weight
- % increase over vehicle ([1]; 30 mg/kg s.c., 100.5 min): 14.5%
- Accumulated lipid utilization ([1]; 30 mg/kg s.c., 100.5 min): 0.79 g/kg body weight
- % increase over vehicle ([1]; 30 mg/kg s.c., 134 min): 13.2%
- Accumulated lipid utilization ([1]; 30 mg/kg s.c., 134 min): 1.06 g/kg body weight
- % increase over vehicle ([1]; 30 mg/kg s.c., 167.5 min): 12.5%
- Accumulated lipid utilization ([1]; 30 mg/kg s.c., 167.5 min): 1.35 g/kg body weight
- % increase over vehicle ([1]; 30 mg/kg s.c., 201 min): 11.8%
- Accumulated lipid utilization ([1]; 30 mg/kg s.c., 201 min): 1.66 g/kg body weight
- % increase over vehicle ([1]; 30 mg/kg s.c., 234.5 min): 11.7%
- Accumulated lipid utilization ([1]; 30 mg/kg s.c., 234.5 min): 1.96 g/kg body weight
- % increase over vehicle ([1]; 30 mg/kg s.c., 268 min): 12.2%
- Accumulated lipid utilization ([1]; 30 mg/kg s.c., 268 min): 2.26 g/kg body weight
- % increase over vehicle ([1]; 30 mg/kg s.c., 301.5 min): 12.5%
- Accumulated lipid utilization ([1]; 30 mg/kg s.c., 301.5 min): 2.55 g/kg body weight
- % increase over vehicle ([1]; 30 mg/kg s.c., 335 min): 12.3%
- Accumulated lipid utilization ([1]; 30 mg/kg s.c., 335 min): 2.86 g/kg body weight
- % increase over vehicle ([1]; 30 mg/kg s.c., 368.5 min): 11.5%
- Accumulated lipid utilization ([1]; 30 mg/kg s.c., 368.5 min): 3.18 g/kg body weight
- Duration of effect on lipid oxidation ([1]; 10 and 30 mg/kg s.c.): at least 6 hours
- Duration of effect (entire assessment period) [2]: 6 h
- Time after administration at which the effect is apparent [2]: approx. 60 min
- % increase over vehicle ([2]; 5 min): −15%
- Accumulated 14CO2 exhaled ([2]; 5 min): 133 +/− 41 cpm
- % increase over vehicle ([2]; 15 min): −30%
- Accumulated 14CO2 exhaled ([2]; 15 min): 121 +/− 36 cpm
- % increase over vehicle ([2]; 30 min): 17%
- Accumulated 14CO2 exhaled ([2]; 30 min): 211 +/− 32 cpm
- % increase over vehicle ([2]; 60 min): 41%
- Accumulated 14CO2 exhaled ([2]; 60 min): 544 +/− 102 cpm
- % increase over vehicle ([2]; 90 min): 40%
- Accumulated 14CO2 exhaled ([2]; 90 min): 1440 +/− 90 cpm
- % increase over vehicle ([2]; 120 min): 56%
- Accumulated 14CO2 exhaled ([2]; 120 min): 2614 +/− 136 cpm
- % increase over vehicle ([2]; 150 min): 62%
- Accumulated 14CO2 exhaled ([2]; 150 min): 4333 +/− 235 cpm
- % increase over vehicle ([2]; 180 min): 51%
- Accumulated 14CO2 exhaled ([2]; 180 min): 5729 +/− 397 cpm
- % increase over vehicle ([2]; 240 min): 56%
- Accumulated 14CO2 exhaled ([2]; 240 min): 9572 +/− 809 cpm
- % increase over vehicle ([2]; 300 min): 77%
- Accumulated 14CO2 exhaled ([2]; 300 min): 13261 +/− 1.445 cpm
- % increase over vehicle ([2]; 360 min): 60%
- Accumulated 14CO2 exhaled ([2]; 360 min): 16134 +/− 2.130 cpm

— US20030144345A1, “Treatment of metabolic diseases with soraphen derivatives” (priority 2001, published 2003)
